System: hind leg scratching behaviour induced in rats by the administration of a known pruritogenic agent
Settings: rats challenged s.c. with 5-methoxytryptamine hydrochloride (4 mg/3 mL/kg); test compound by subcutaneous injection in aqueous micelle formulation; scratching score totalled after 25 minutes vs control group
Protocol: The compounds of the invention are evaluated for their activity as antipruritic agents by measuring their ability to inhibit the hind leg scratching behaviour induced in rats by the administration of a known pruritogenic agent. […] The test is performed as follows:
Male Wistar rats (approximately 150 g body weight) are challenged with a pruritogen by subcutaneous injection of 5-methoxytryptamine hydrochloride (4 mg/3 mL/kg) dissolved in physiological saline into the scruff of the neck. At this dose a constant and quantifiable hindleg scratching response lasting up to 90 minutes is obtained.
The test compound is administered to the test animals by subcutaneous injection in an aqueous micelle formulation. The test compound is prepared in the following manner. […] The compounds can be administered pre- or post-challenge or may be administered at the same time as the pruritogenic challenge.
After the pruritogen challenge has been administered, hindleg scratching is scored for each animal by recording the presence or absence of scratching during each 30 second interval as 1 or 0 scored respectively. The score for each animal is totalled after 25 minutes (maximum score 50).

CCOCCN1CC[C@@](C)(c2cccc(O)c2)[C@H](C)C1 (racemic) [Example 5]
anti-pruritic activity: display anti-pruritic activity

Source: patent publication US6518282B1, “4-Arylpiperidine derivatives for the treatment of pruritus” (Pfizer Inc., priority 1999, dated 2003)
